Laboratory results published in paper PMC9893751, “Synthesis of Benzimidazole-1,2,4-triazole Derivatives as Potential Antifungal Agents Targeting 14α-Demethylase” (ACS Omega, 2023).
Converted amounts (≈) assume the structure as drawn.

Tests used:
L929 cell lines = experiment: Cytotoxicity MTT assay on L929 fibroblasts; type: cell-based
Procedure: (§1) The cytotoxic effect of compounds 6a–6l was evaluated against L929 cell lines. For preliminary screening, the cytotoxic bioactivity of synthesized compounds was evaluated in vitro against L929 cell lines with the MTT assay. […] The effect of the compounds 6a–6l on the viability of L929 cell lines was analyzed by MTT assay as described in the previous work.[45]

C. albicans (ATCC 24433) = experiment: In vitro antifungal activity (CLSI) against C. albicans; type: cell-based; conditions: for MIC: Candida albicans, ATCC24433
From the text: (§2) Voriconazole and fluconazole (against candida strains) were used as standard reference drugs.

[1] = test system: C. parapsilopsis (ATCC 22019); experiment: In vitro antifungal activity (CLSI) against C. parapsilosis; type: cell-based; conditions: for MIC: Lodderomyces parapsilosis, ATCC22019
From the text: as §2

C. krusei (ATCC 6258) = experiment: In vitro antifungal activity (CLSI) against C. krusei; type: cell-based; conditions: for MIC: Pichia kudriavzevii, ATCC6258
From the text: as §2

C. glabrata (ATCC 9) = experiment: In vitro antifungal activity (CLSI) against C. glabrata; type: cell-based; conditions: for Antifungal activity (MIC), C. glabrata / MIC: C. glabrata ATCC 9; for Effectiveness against C. glabrata compared with fluconazole / Effectiveness against C. glabrata compared with voriconazole: from MIC values; for MIC: Nakaseomyces glabratus, ATCC9
From the text: as §2

[2] = Cytotoxicity MTT assay on L929 fibroblasts; type: cell-based; conditions: mouse, L929 fibroblast cells; 100 μM, 48 h, L929 cell lines, MTT
Procedure: as §1

| Molecule | cell viability (%) (L929 cell lines; 100 µM) | Antifungal activity (MIC), C. albicans (C. albicans (ATCC 24433)) | Antifungal activity (MIC), C. parapsilosis [1] | Antifungal activity (MIC), C. krusei (C. krusei (ATCC 6258)) | Antifungal activity (MIC), C. glabrata (C. glabrata (ATCC 9)) | Effectiveness against C. glabrata compared with fluconazole (C. glabrata (ATCC 9)) | Effectiveness against C. glabrata compared with voriconazole (C. glabrata (ATCC 9)) | viability at 48 h, 100 µM [2] | MIC (C. albicans (ATCC 24433)) | MIC [1] | MIC (C. krusei (ATCC 6258)) | melting point | MIC (C. glabrata (ATCC 9)) | cell viability (%) (L929 cell lines; 100 μM, 48 h, L929 cell lines, MTT) | IC50 (L929 cell lines; Mus musculus, L929 fibroblasts, MTT, maximum dose 100 μM, 48 h, read-out: IC50 against L929) |
| --- | --- | --- | --- | --- | --- | --- | --- | --- | --- | --- | --- | --- | --- | --- | --- |
| 2-(4-(5-((2-(4-Nitrophenyl)-2-oxoethyl)thio)-4-phenyl-4H-1,2,4-triazol-3-yl)phenyl)-1H-benz[d]imidazole-5(6)-carbonitrile [6a] | 34 ± 6.19% | 31.25 µg/mL | 62.5 µg/mL | 125 µg/mL | 1.95 µg/mL | two times more effective | same activity | – | – | – | – | – | – | – | – |
| COc1ccc(C(=O)CSc2nnc(-c3ccc(-c4nc5cc(C#N)ccc5[nH]4)cc3)n2-c2ccccc2)cc1 [6b, 2-(4-(5-((2-(4-Methoxyphenyl)-2-oxoethyl)thio)-4-phenyl-4H-1,2,4-triazol-3-yl)phenyl)-1H-benz[d]imidazole-5(6)-carbonitrile] | – | – | – | – | – | four times more effective | two times more effective | 32.1 ± 1.38% | 31.2 µg/mL (≈ 57.6 µM) | 31.2 µg/mL (≈ 57.6 µM) | 125 µg/mL (≈ 230 µM) | 177.6 °C | 0.97 µg/mL (≈ 1.79 µM) | – | – |
| N#Cc1ccc(C(=O)CSc2nnc(-c3ccc(-c4nc5cc(C#N)ccc5[nH]4)cc3)n2-c2ccccc2)cc1 [6c, 2-(4-(5-((2-(4-Cyanophenyl)-2-oxoethyl)thio)-4-phenyl-4H-1,2,4-triazol-3-yl)phenyl)-1H-benz[d]imidazole-5(6)-carbonitrile] | 30.9 ± 1.42% | 31.25 µg/mL | 31.25 µg/mL | 125 µg/mL | 1.95 µg/mL | two times more effective | same activity | – | – | – | – | – | – | – | – |
| N#Cc1ccc2[nH]c(-c3ccc(-c4nnc(SCC(=O)c5ccc(F)cc5)n4-c4ccccc4)cc3)nc2c1 [6d, 2-(4-(5-((2-(4-Fluorophenyl)-2-oxoethyl)thio)-4-phenyl-4H-1,2,4-triazol-3-yl)phenyl)-1H-benz[d]imidazole-5(6)-carbonitrile] | 34.2 ± 5.13% | 62.5 µg/mL | 125 µg/mL | 125 µg/mL | 1.95 µg/mL | two times more effective | same activity | – | – | – | – | – | – | – | – |
| N#Cc1ccc2[nH]c(-c3ccc(-c4nnc(SCC(=O)c5ccc(-c6ccccc6)cc5)n4-c4ccccc4)cc3)nc2c1 [6e, 2-(4-(5-((2-([1,1′-Biphenyl]-4-yl)2-oxoethyl)thio)-4-phenyl-4H-1,2,4-triazol-3-yl)phenyl)-1H-benz[d]imidazole-5(6)-carbonitrile] | – | 62.5 µg/mL | 62.5 µg/mL | 125 µg/mL | 1.95 µg/mL | two times more effective | same activity | – | – | – | – | – | – | 40 ± 8.71% | – |
| N#Cc1ccc2[nH]c(-c3ccc(-c4nnc(SCC(=O)c5ccc(Br)cc5)n4-c4ccccc4)cc3)nc2c1 [6f, 2-(4-(5-((2-(4-Bromophenyl)-2-oxoethyl)thio)-4-phenyl-4H-1,2,4-triazol-3-yl)phenyl)-1H-benz[d]imidazole-5(6)-carbonitrile] | 27.6 ± 1.02% | 62.5 µg/mL | 62.5 µg/mL | 125 µg/mL | 1.95 µg/mL | two times more effective | same activity | – | – | – | – | – | – | – | – |
| N#Cc1ccc2[nH]c(-c3ccc(-c4nnc(SCC(=O)c5ccc(Cl)c(Cl)c5)n4-c4ccccc4)cc3)nc2c1 [6g, 2-(4-(5-((2-(3,4-Dichlorophenyl)-2-oxoethyl)thio)-4-phenyl-4H-1,2,4-triazol-3-yl)phenyl)-1H-benz[d]imidazole-5(6)-carbonitrile] | 34.6 ± 3.51% | 125 µg/mL | 31.25 µg/mL | 250 µg/mL | 1.95 µg/mL | two times more effective | same activity | – | – | – | – | – | – | – | – |
| N#Cc1ccc2[nH]c(-c3ccc(-c4nnc(SCC(=O)c5ccc(F)cc5F)n4-c4ccccc4)cc3)nc2c1 [6h, 2-(4-(5-((2-(2,4-Difluorophenyl)-2-oxoethyl)thio)-4-phenyl-4H-1,2,4-triazol-3-yl)phenyl)-1H-benz[d]imidazole-5(6)-carbonitrile] | 28.1 ± 1.48% | 62.5 µg/mL | 62.5 µg/mL | 62.5 µg/mL | 1.95 µg/mL | two times more effective | same activity | – | – | – | – | – | – | – | – |
| N#Cc1ccc2nc(-c3ccc(-c4nnc(SCC(=O)c5ccc(Cl)cc5)n4-c4ccccc4)cc3)[nH]c2c1 [6i, 2-(4-(5-((2-(4-Chlorophenyl)-2-oxoethyl)thio)-4-phenyl-4H-1,2,4-triazol-3-yl)phenyl)-1H-benz[d]imidazole-5(6)-carbonitrile] | – | – | – | – | – | four times more effective | two times more effective | 53.6 ± 2.82% | 62.5 µg/mL (≈ 114 µM) | 31.2 µg/mL (≈ 57.1 µM) | 125 µg/mL (≈ 229 µM) | 197.9 °C | 0.97 µg/mL (≈ 1.77 µM) | – | > 100 µM |
| N#Cc1ccc2nc(-c3ccc(-c4nnc(SCC(=O)c5ccc(Cl)cc5Cl)n4-c4ccccc4)cc3)[nH]c2c1 [6j, 2-(4-(5-((2-(2,4-Dichlorophenyl)-2-oxoethyl)thio)-4-phenyl-4H-1,2,4-triazol-3-yl)phenyl)-1H-benz[d]imidazole-5(6)-carbonitrile] | – | – | – | – | – | four times more effective | two times more effective | 32.5 ± 1.34% | 62.5 µg/mL (≈ 107 µM) | 31.2 µg/mL (≈ 53.7 µM) | 125 µg/mL (≈ 215 µM) | 206.5 °C | 0.97 µg/mL (≈ 1.67 µM) | – | – |
| N#Cc1ccc2[nH]c(-c3ccc(-c4nnc(SCC(=O)c5cccc([N+](=O)[O-])c5)n4-c4ccccc4)cc3)nc2c1 [6k, 2-(4-(5-((2-(3-Nitrophenyl)-2-oxoethyl)thio)-4-phenyl-4H-1,2,4-triazol-3-yl)phenyl)-1H-benz[d]imidazole-5(6)-carbonitrile] | 30.3 ± 0.41% | 31.25 µg/mL | 31.25 µg/mL | 125 µg/mL | 1.95 µg/mL | two times more effective | same activity | – | – | – | – | – | – | – | – |
| N#Cc1ccc2[nH]c(-c3ccc(-c4nnc(SCC(=O)c5ccccc5)n4-c4ccccc4)cc3)nc2c1 [6l, 2-(4-(5-((2-Oxo-2-phenylethyl)thio)-4-phenyl-4H-1,2,4-triazol-3-yl)phenyl)-1H-benz[d]imidazole-5(6)-carbonitrile] | 37.6 ± 3.55% | 31.25 µg/mL | 31.25 µg/mL | 125 µg/mL | 1.95 µg/mL | two times more effective | same activity | – | – | – | – | – | – | – | – |
| OC(Cn1cncn1)(Cn1cncn1)c1ccc(F)cc1F [fluconazole, reference compound] | – | – | – | – | – | – | – | – | 7.81 µg/mL (≈ 25.5 µM) | 3.9 µg/mL (≈ 12.7 µM) | 7.81 µg/mL (≈ 25.5 µM) | – | 3.9 µg/mL (≈ 12.7 µM) | – | – |
| C[C@@H](c1ncncc1F)[C@](O)(Cn1cncn1)c1ccc(F)cc1F [voriconazole, reference compound] | – | – | – | – | – | – | – | – | 3.9 µg/mL (≈ 11.2 µM) | 3.9 µg/mL (≈ 11.2 µM) | 3.9 µg/mL (≈ 11.2 µM) | – | 1.95 µg/mL (≈ 5.58 µM) | – | – |
